Results on 17 compounds are retold here after PubChem BioAssay (NCI).

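Where inhibition never reached the appropriate level, the endpoint shown equals the highest concentration tested. Otherwise, values were interpolated linearly from a five-concentration, 48-hour dose response in 96-well plates. GI50 marks 50% less growth. The concentration for full growth arrest is given as TGI.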

Experiment in all cases: inhibition of tumour cell growth, NCI panel, 48 h
Assay [1] concerns LOX IMVI melanoma.
The subject of assay [2] is OVCAR-4 ovarian.
Assay [3] deals with HOP-62 NSCLC.
Assay [4] relates to SF-295 CNS.
The subject of assay [5] is KM12 colon.
Assay [6] relates to TK-10 renal.
The test system of assay [7] is BT-549 breast.
Assay [8] deals with SF-268 CNS.
For assay [9], the system named is OVCAR-5 ovarian.
Assay [10] relates to SK-MEL-5 melanoma.

Take `CCC1(O)C(=O)OCc2c1cc1n(c2=O)Cc2cc3c(NC(=O)CN)cccc3nc2-1` (stereo not given): the GI50 in assay [1] is 0.146 µM; in assay [2], 7.53 µM; in assay [3], 0.0847 µM; in assay [4], 0.368 µM; in assay [5], 1.87 µM; in [6], 38.7 µM. Also, the GI50 is 0.477 µM in assay [7], 0.191 µM in assay [8], 3.27 µM in [9] and 0.8 µM in assay [10]. Moreover, the TGI in [1] is 4.08 µM; in assay [2], 36.7 µM; in assay [3], 0.622 µM; in assay [4], 28 µM; in assay [5] it was 44.7 µM; in assay [6], > 97.6 µM. The TGI in [7] was > 26.2 µM; in assay [8], 46.5 µM; in [9], 63.9 µM; in assay [10], 4.78 µM.

On to `Cc1cc(N(CCCNc2ccnc3cc(Cl)ccc23)Cc2ccco2)nc(N2CCN(C)CC2)n1`, for which the GI50 in assay [1] is 1.69 µM; in assay [2] it was 3.59 µM; in assay [3], 3.65 µM; in assay [4] it was 1.87 µM; in assay [5], 3.73 µM; in assay [6], 2.08 µM. The GI50 in [7] is 2.07 µM; in assay [8], 2.9 µM; in assay [9], 6.08 µM; in assay [10] it was 1.75 µM. Also, the TGI in assay [1] stood at 3.53 µM; in assay [2] it was 19.6 µM; in assay [3], 14.3 µM; in [4], 3.84 µM; in [5], 16.7 µM; in assay [6], 4.82 µM. Also, the TGI in [7] came out at 6.05 µM; in assay [8], 15.7 µM; in [9], 21.8 µM; in assay [10], 3.17 µM.

Consider `Nc1nc(Nc2ccccc2SSc2ccccc2Nc2nc(N)nc(C(Cl)(Cl)Cl)n2)nc(C(Cl)(Cl)Cl)n1`, for which the GI50 is 1.68 µM in assay [1]; 6.86 µM in assay [2]; 2.07 µM in assay [3]; 1.99 µM in [4]; 4.05 µM in assay [5]; 4.85 µM in [6]. Further, the GI50 in [7] is 3.34 µM; in [8], 3.1 µM; in assay [9], 4.75 µM; in [10], 5.97 µM. In addition, the TGI in assay [1] came to 3.13 µM; in [2], 45.1 µM; in [3] it was 6.33 µM; in assay [4] it was 4.75 µM; in [5], 28.9 µM; in assay [6], 17.2 µM. Moreover, the TGI in [7] was 35.7 µM; in [8], 13.8 µM; in [9], 18.7 µM; in assay [10], 32.2 µM.

For the compound `NS(=O)(=O)c1ccc(-c2cc3ccncc3cc2OCc2ccccc2)cc1`, the GI50 is > 22.6 µM in assay [1]; > 19.6 µM in [2]; 6.83 µM in assay [3]; > 18 µM in assay [4]; > 20.2 µM in [5]; > 23.1 µM in assay [6]. The GI50 in assay [7] was 6.01 µM; in assay [8], > 20.1 µM; in assay [9], > 25 µM; in assay [10] it was > 25 µM. In addition, the TGI in [1], in assay [2], in assay [3], in [4], in [5] and in [6] was > 25 µM throughout. Further, the TGI in assay [7], in assay [8], in assay [9] and in assay [10] was > 25 µM in each case.

`Cc1ccc(-c2nc([P+](c3ccccc3)(c3ccccc3)c3ccccc3)c(S(=O)(=O)c3ccc(C)cc3)o2)cc1`: the GI50 in assay [1] is 0.328 µM; in assay [2] it was 1.4 µM; in assay [3], 1.47 µM; in assay [4], 2.91 µM; in assay [5] it was 1.75 µM; in [6], 1.73 µM. In addition, the GI50 in [7] was 1.61 µM; in [8], 1.55 µM; in [9], 1.58 µM; in assay [10] it was 1.81 µM. The TGI amounted to 1.3 µM in assay [1]; 2.83 µM in assay [2]; 4.56 µM in [3]; 10.7 µM in assay [4]; 3.83 µM in assay [5]; 3.27 µM in assay [6]. The TGI was found to be 3.1 µM in assay [7], 2.97 µM in assay [8], 3.18 µM in assay [9] and 3.4 µM in assay [10].

Take `Cc1cc[n+]2c(c1)-c1cc(C)cc[n+]1CC2`: the TGI in assay [1], in [2], in [3], in assay [4], in [5] and in assay [6] was > 100 µM in each case. Besides, the TGI in assay [7], in [8], in assay [9] and in assay [10] was > 100 µM each time.

Regarding `O=C(O)CCC(=O)c1ccc2sc3ccccc3c2c1`, the TGI in [1], in assay [2], in assay [3], in [4], in assay [5] and in assay [6] was > 100 µM throughout. The TGI in [7], in assay [8], in [9] and in [10] was > 100 µM in each case.

On to `O=C(O)c1cccc(C(=O)O)c1S(=O)Cc1ccccc1` (stereo not given), for which the TGI in [1], in assay [2], in assay [3], in [4], in [5] and in [6] was > 100 µM each time. Further, the TGI in assay [7], in [8], in [9] and in assay [10] was > 100 µM in each case.

Consider `C[C@]12CC[C@@H]3c4cc(OC(F)F)c(OS(N)(=O)=O)cc4CC[C@H]3[C@@H]1CC[C@@H]2O`, for which the GI50 in assay [1] is 0.428 µM; in assay [2], 7.8 µM; in assay [3], 0.592 µM; in assay [4], 0.252 µM; in assay [5], 0.422 µM; in [6], 17 µM. Besides, the GI50 is 0.901 µM in [7], 1.49 µM in [8], 1.77 µM in assay [9] and 0.315 µM in [10]. Further, the TGI in assay [1] is 15.3 µM; in [2], 83.9 µM; in [3] it was 27.3 µM; in [4] it was 1.03 µM; in [5], 16.6 µM; in [6], > 77.2 µM. In addition, the TGI in [7] is 16.9 µM; in [8], 60.3 µM; in assay [9], > 62.8 µM; in assay [10] it was 3.56 µM.

Regarding `Oc1ccc(C(c2ccc(O)cc2)c2ccc(Br)cn2)cc1`, the GI50 in assay [1] is 0.282 µM; in [2], 0.101 µM; in assay [3], 6.12 µM; in assay [4], 0.331 µM; in assay [5] it was 0.454 µM; in assay [6], 0.258 µM. Besides, the GI50 in assay [7] is 0.26 µM; in assay [8], 21.5 µM; in assay [9], 13.7 µM; in assay [10], 11.9 µM. Moreover, the TGI in [1] was 0.895 µM; in [2], 0.525 µM; in assay [3] it was > 62 µM; in [4] it was 1.63 µM; in [5], 18.9 µM; in [6], 1.13 µM. The TGI is 0.788 µM in assay [7], > 91 µM in assay [8], > 71 µM in assay [9] and 24.5 µM in assay [10].

For `Cc1cc(C)nc(SC2=C(Nc3cc(Cl)ccc3O)C(=O)N(Cc3ccccc3)C2=O)n1`, the GI50 was 27.2 µM in [1]; 34 µM in assay [2]; 27.6 µM in assay [3]; 36.8 µM in [4]; 27.4 µM in assay [5]; 53.9 µM in assay [6]. The GI50 in assay [7] is 63 µM; in assay [8], 61.2 µM; in assay [9], > 160 µM; in assay [10], 38.9 µM. The TGI in assay [1] was 89.4 µM; in [2], > 160 µM; in assay [3], 101 µM; in assay [4], > 160 µM; in assay [5] it was 73.8 µM; in assay [6], > 160 µM. Also, the TGI in [7], in assay [8], in assay [9] and in assay [10] was > 160 µM in each case.

For the compound `COC(=O)CCCCC(=O)c1c(C)[nH]c(/C=C2\N=C(c3ccc[nH]3)C=C2OC)c1C`, the GI50 in assay [1] is 0.0416 µM; in [2], 1.14 µM; in assay [3], 0.475 µM; in assay [4], 1.52 µM; in [5], 0.54 µM; in [6], 2.06 µM. For the same compound, the GI50 in [7] is 0.418 µM; in assay [8] it was 0.802 µM; in [9], 0.87 µM; in assay [10], 0.357 µM. Moreover, the TGI in assay [1] amounted to 0.135 µM; in assay [2], 2.47 µM; in assay [3] it was 1.87 µM; in assay [4] it was 3.05 µM; in assay [5], 1.96 µM; in [6] it was 6.38 µM. For the same compound, the TGI in assay [7] worked out at 1.85 µM; in assay [8], 2.17 µM; in assay [9], 2.38 µM; in [10] it was 1.37 µM.

Regarding `COc1ccc(N(CC(=O)NCCC[Te]c2ccccc2)C(=O)CNC(=O)OC(C)(C)C)cc1`, the GI50 in [1] was 2.33 µM; in [2] it was 22.6 µM; in assay [3] it was 2.19 µM; in assay [4] it was 1.27 µM; in [5], 3.33 µM; in [6], 3.93 µM. The GI50 in assay [7] is 1.68 µM; in assay [8] it was 2.7 µM; in assay [9], 3 µM; in assay [10], 3.13 µM. In addition, the TGI in assay [1] is 5.76 µM; in assay [2], > 100 µM; in assay [3], 4.73 µM; in assay [4], 4.11 µM; in assay [5] it was 11.4 µM; in [6], 10.8 µM. The TGI in assay [7] came out at 4.86 µM; in [8], 7.56 µM; in assay [9], 7.48 µM; in assay [10] it was 9.13 µM.

On to `C[N+](C)(C)CC1CCCC1=O` (stereo not given), for which the TGI in [1] was 2.33 µM; in assay [2], 1.8 µM; in [3], > 68 µM; in assay [4] it was 36.4 µM; in assay [5] it was 20.6 µM; in [6], 6.76 µM. Moreover, the TGI in [7] turned out to be 2.32 µM; in assay [8] it was 20.8 µM; in assay [9], 14.8 µM; in [10] it was 12.5 µM.

In the case of `CC(C)(O)CNc1nc(Nc2ccnc(C(F)(F)F)c2)nc(-c2cccc(C(F)(F)F)n2)n1`, the GI50 was 17.3 µM in [1]; 23.9 µM in [2]; 21.4 µM in assay [3]; 17.1 µM in [4]; 16.4 µM in [5]; 26.6 µM in assay [6]. Further, the GI50 in assay [7] was 16.7 µM; in assay [8], 23.1 µM; in assay [9], 22.5 µM; in assay [10], 13.2 µM. Moreover, the TGI in assay [1] stood at 32.6 µM; in assay [2] it was 86.9 µM; in [3] it was 52.8 µM; in assay [4], 35.3 µM; in [5], 43.7 µM; in [6], 82.4 µM. Moreover, the TGI stood at 39.7 µM in assay [7], 76.4 µM in assay [8], 63 µM in assay [9] and 26.3 µM in assay [10].

Regarding `OC(C#Cc1ccccc1)(c1ccccc1)c1ccccc1`, the TGI in assay [1] is 38 µM; in assay [2], > 100 µM; in assay [3], > 100 µM; in assay [4], 77.7 µM; in assay [5], 78.4 µM; in assay [6], 77.4 µM. Moreover, the TGI in assay [7] is > 100 µM; in assay [8], 54.9 µM; in assay [9], > 100 µM; in [10], 37.7 µM.

For `c1ccc(CCc2cccnc2)nc1`, the TGI in assay [1], in [2], in [3], in [4], in assay [5] and in [6] was > 100 µM each time. The TGI in assay [7], in assay [8], in assay [9] and in [10] was > 100 µM in each case.
